According to patent US8551999B2, “Heterocyclic compound and pharmaceutical composition thereof” (Otsuka Pharmaceutical Co., Ltd., priority 2007, dated 2013):

Row | SMILES | melting point
1 | O=C(CN1CCc2cc(Oc3ccc(NS(=O)(=O)c4ccc(Cl)c(Cl)c4)cn3)ccc21)N1CCN(Cc2ccc3c(c2)OCO3)CC1 [Example 64, N-(6-{1-[2-(4-Benzo[1,3]dioxol-5-ylmethylpiperazin-1-yl)-2-oxo-ethyl]-2,3-dihydro-1H-indol-5-yloxy}pyridin-3-yl)-3,4-dichloro-benzenesulfonamide] | 152 to 153 °C
2 | Br.CN(C(=O)c1ccc(Cl)c(Cl)c1)c1ccc(Oc2ccc3c(c2)cc(C(=O)N2CCN(Cc4ccccc4)CC2)n3C)nc1 [Example 330, N-{6-[2-(4-Benzylpiperazine-1-carbonyl)-1-methyl-1H-indol-5-yl-oxy]pyridin-3-yl}-3,4-dichloro-N-methylbenzamide hydrobromide] | 210 to 213 °C
3 | Cc1ccc(C(=O)N(C)c2ccc(Oc3ccc4cc(C(=O)N5CCN(Cc6ccc(OC(F)F)cc6)CC5)n(C)c4c3)nc2)cc1 [Example 276, N-(6-{2-[4-(4-Difluoromethoxybenzyl)piperazine-1-carbonyl]-1-methyl-1H-indol-6-yloxy}pyridin-3-yl)-4,N-dimethylbenzamide] | 140.1 to 141.3 °C
4 | Br.CCN(C(=O)c1ccc(C(F)(F)F)cc1)c1ccc(Oc2ccc3cc(C(=O)N4CCN(Cc5ccc(OCC(F)(F)F)cc5)CC4)n(C)c3c2)nc1 [Example 26, N-Ethyl-N-[6-(1-methyl-2-{4-[4-(2,2,2-trifluoroethoxy)benzyl]-piperazine-1-carbonyl}-1H-indol-6-yloxy)pyridin-3-yl]-4-tri-fluoromethylbenzamide hydrobromide] | 189.8 to 192.8 °C
5 | CS(=O)(=O)O.CS(=O)(=O)O.Cc1c(Oc2ccc(NC(=O)c3ccc(C(F)(F)F)cc3)cn2)ccc2c1cc(C(=O)N1CCN(Cc3ccccn3)CC1)n2C [Example 234, N-{6-[1,4-Dimethyl-2-(4-pyridin-2-ylmethylpiperazine-1-carbonyl)-1H-indol-5-yloxy]pyridin-3-yl}-4-trifluoromethylbenzamide bismethanesulfonate] | 149 to 150 °C
6 | Br.CCOc1ccc(CN2CCN(C(=O)c3cc4cc(Oc5cc(C)c(NC(=O)c6ccc(Cl)c(Cl)c6)cn5)ccc4n3C)CC2)cc1 [Example 364, 3,4-Dichloro-N-(6-{2-[4-(4-ethoxybenzyl)piperazine-1-carbonyl]-1-methyl-1H-indol-5-yloxy}-4-methylpyridin-3-yl)benzamide hydrobromide] | 197 to 199 °C
7 | COc1ccc(CN2CCN(C(=O)c3cc4cc(Oc5ccc(CNC(=O)c6ccc(C(F)(F)F)cn6)cn5)ccc4n3C)CC2)cc1.O=C(O)C(=O)O.O=C(O)C(=O)O [Example 21, 5-Trifluoromethylpyridine-2-carboxylic acid (6-{2-[4-(4-methoxy-benzyl)piperazine-1-carbonyl]-1-methyl-1H-indol-5-yloxy}pyridin-3-yl)methylamide dioxalate] | 152 to 154 °C
8 | Br.COc1ccc(CN2CCN(C(=O)c3cc4ccc(Oc5ccc(N(C)C(=O)c6ccc(C(F)(F)F)cc6)cn5)cc4n3C)CC2)cc1 [Example 322, N-(6-{2-[4-(4-Methoxybenzyl)piperazine-1-carbonyl]-1-methyl-1H-indol-6-yloxy}pyridin-3-yl)-N-methyl-4-trifluoromethylbenzamide hydrobromide] | 233 to 235 °C
9 | Br.Cn1c(C(=O)N2CCN(Cc3ccc4c(c3)OCO4)CC2)cc2cc(Oc3ccc(NCc4ccc(Cl)c(Cl)c4)cn3)ccc21 [Example 333, (4-Benzo[1,3]dioxol-5-ylmethylpiperazin-1-yl)(5-{5-[(3,4-di-chlorophenyl)methylamino]pyridin-2-yloxy}-1-methyl-1H-indol-2-yl)methanone hydrobromide] | 205 to 214 °C
10 | Cl.Cn1c(C(=O)N2CCN(Cc3ccc(OC(F)F)cc3)CC2)cc2ccc(Oc3ncc(NC(=O)c4ccc(C(F)(F)F)cc4)cn3)cc21 | 247.7 to 249.8 °C
11 | CC(C)Oc1ccc(CN2CCN(C(=O)c3cc4ccc(Oc5ccc(NC(=O)c6ccc(C(F)(F)F)cc6F)cn5)cc4n3C)CC2)cc1.Cl | 267.6 to 268.2 °C
12 | CN(c1ccc(Oc2ccc3cc(C(=O)N4CCN(Cc5ccc(OCC(F)(F)F)cc5)CC4)[nH]c3c2)nc1)S(=O)(=O)c1ccc(Cl)c(Cl)c1.Cl | 225.2 to 229.3 °C
13 | Br.Cn1c(C(=O)N2CCN(Cc3ccccn3)CC2)cc2c(Oc3ccc(NC(=O)c4ccc(C(F)(F)F)cc4)cn3)cccc21 [Example 246, N-{6-[1-Methyl-2-(4-pyridin-2-ylmethylpiperazine-1-carbonyl)-1H-indol-4-yloxy]pyridin-3-yl}-4-trifluoromethylbenzamide hydrobromide] | 186 to 189 °C

Further lines, results first:

Row | melting point | SMILES
14 | 223.7 to 224.8 °C | Br.CCCOc1ccc(CN2CCN(C(=O)c3cc4ccc(Oc5ccc(NS(=O)(=O)c6ccc(C(F)(F)F)cc6)cn5)cc4n3C)CC2)cc1 [Example 511, N-(6-{1-Methyl-2-[4-(4-propoxybenzyl)piperazine-1-carbonyl]-1H-indol-6-yloxy}pyridin-3-yl)-4-trifluoromethylbenzenesulfonamide hydrobromide]
15 | 163 to 164 °C | CCCOc1ccc(CN2CCN(C(=O)c3cc4cc(Oc5ccc(N(C)C(=O)c6ccc(Cl)c(Cl)c6)cn5)ccc4n3C)CC2)cc1.O=C(O)/C=C\C(=O)O [Example 370, 3,4-Dichloro-N-methyl-N-(6-{1-methyl-2-[4-(4-propoxybenzyl)-piperazine-1-carbonyl]-1H-indol-5-yloxy}pyridin-3-yl)benzamide maleate]
16 | 97.9 to 99.5 °C | Cc1c(Oc2ccc(N(C)C(=O)c3ccc(C(F)(F)F)cc3)cn2)ccc2c1cc(C(=O)N1CCN(Cc3ccc4c(c3)OC(F)(F)O4)CC1)n2C [Example 441, N-(6-{2-[4-(2,2-Difluorobenzo[1,3]dioxol-5-ylmethyl)piperazine-1-carbonyl]-1,4-dimethyl-1H-indol-5-yloxy}pyridin-3-yl)-N-methyl-4-trifluoromethylbenzamide]
17 | 239.8 to 240.8 °C | Br.Cn1c(C(=O)N2CCN(Cc3ccc(OC(CF)CF)cc3)CC2)cc2ccc(Oc3ccc(NC(=O)c4ccc(C(F)(F)F)cc4Cl)cn3)cc21 [Example 537, 2-Chloro-N-[6-(2-{4-[4-(2-fluoro-1-fluoromethylethoxy)benzyl]-piperazine-1-carbonyl}-1-methyl-1H-indol-6-yloxy)pyridin-3-yl]-4-trifluoromethylbenzamide hydrobromide]
18 | 168.4 to 168.6 °C | CN(c1ccc(Oc2ccc3cc(C(=O)N4CCN(Cc5ccc(OCC(F)F)cc5)CC4)n(C)c3c2)nc1)S(=O)(=O)c1ccc(Cl)c(Cl)c1 [Example 512, 3,4-Dichloro-N-[6-(2-{4-[4-(2,2-difluoroethoxy)benzyl]piperazine-1-carbonyl}-1-methyl-1H-indol-6-yloxy)pyridin-3-yl]-N-methyl-benzenesulfonamide]
19 | 156 to 157 °C | CCOc1ccc(CN2CCN(C(=O)c3cc4cc(Oc5ncc(NC(=O)c6ccc(Cl)c(Cl)c6)cn5)ccc4n3C)CC2)cc1 [Example 384, 3,4-Dichloro-N-(2-{2-[4-(4-ethoxybenzyl)piperazine-1-carbonyl]-1-methyl-1H-indol-5-yloxy}pyrimidin-5-yl)benzamide]
20 | 156.8 to 157.4 °C | CC(C)Oc1ccc(CN2CCN(C(=O)c3cc4ccc(Oc5ccc(N(C)C(=O)c6ccc(C(F)(F)F)cc6)cn5)cc4n3C)CC2)cn1.O=C(O)/C=C\C(=O)O [Example 444, N-(6-{2-[4-(6-Isopropoxypyridin-3-ylmethyl)piperazine-1-carbonyl]-1-methyl-1H-indol-6-yloxy}pyridin-3-yl)-N-methyl-4-tri-fluoromethylbenzamide maleate]
21 | 265.6 to 268.3 °C | Br.Cn1c(C(=O)N2CCN(Cc3ccc(OC(F)F)cc3)CC2)cc2ccc(Oc3ccc(NC(=O)c4ccc(C(F)(F)F)cc4)cn3)cc21 [Example 477, N-(6-{2-[4-(4-Difluoromethoxybenzyl)piperazine-1-carbonyl]-1-methyl-1H-indol-6-yloxy}pyridin-3-yl)-4-trifluoromethylbenzamide hydrobromide]
22 | 211 to 212 °C | Br.Br.CN(C(=O)c1ccc(C(F)(F)F)cc1)c1ccc(Oc2ccc3c(c2)cc(C(=O)N2CCN(Cc4ccc(OCC(F)(F)F)cc4)CC2)n3C)nc1 [Example 432, N-Methyl-N-[6-(1-methyl-2-{4-[4-(2,2,2-trifluoroethoxy)benzyl]-piperazine-1-carbonyl}-1H-indol-5-yloxy)pyridin-3-yl]-4-tri-fluoromethylbenzamide dihydrobromide]
23 | 214 to 219 °C (dec.) | Br.Br.Cn1c(C(=O)N2CCN(Cc3ccncc3)CC2)cc2cc(Oc3ccc(NC(=O)c4ccc(Cl)c(Cl)c4)cn3)ccc21 [Example 555, 3,4-Dichloro-N-{6-[1-methyl-2-(4-pyridin-4-ylmethylpiperazine-1-carbonyl)-1H-indol-5-yloxy]pyridin-3-yl}benzamide dihydrobromide]
24 | 224 to 226 °C | Br.CCOc1ccc(CN2CCN(C(=O)c3cc4c(C)c(Oc5ccc(N(C)C(=O)c6ccc(C(F)(F)F)cc6)cn5)ccc4n3C)CC2)cc1 [Example 427, N-(6-{2-[4-(4-Ethoxybenzyl)piperazine-1-carbonyl]-1,4-dimethyl-1H-indol-5-yloxy}pyridin-3-yl)-N-methyl-4-trifluoromethyl-benzamide hydrobromide]
25 | 195.2 to 196.8 °C | CN(c1ccc(Oc2ccc3cc(C(=O)N4CCN(Cc5ccc(OCCF)cc5)CC4)n(C)c3c2)nc1)S(=O)(=O)c1ccc(Cl)c(Cl)c1 [Example 513, 3,4-Dichloro-N-[6-(2-{4-[4-(2-fluoroethoxy)benzyl]piperazine-1-carbonyl}-1-methyl-1H-indol-6-yloxy)pyridin-3-yl]-N-methyl-benzenesulfonamide]
26 | 161 to 163 °C | COc1ccc(CN2CCN(C(=O)c3cc4cc(Oc5ccc(NC(=O)c6ccc(C(F)(F)F)cc6)cn5)ccc4n3C)[C@H](C)C2)cc1.O=C(O)C(=O)O [Example 393, N-(6-{2-[(R)-4-(4-Methoxybenzyl)-2-methylpiperazine-1-carbonyl]-1-methyl-1H-indol-5-yloxy}pyridin-3-yl)-4-trifluoromethyl-benzamide oxalate]
